Laboratory results as given in patent US9695155B2, “Herbicidal substituted pyrimidinyloxy benzene compounds” (E. I. DU PONT DE NEMOURS AND COMPANY, priority 2013, dated 2017).

Experiments:
bluegrass [1] = experiment: Test D preemergence; type: in vivo, Poa annua; conditions: Poa annua, pre-emergence
Outline: (§1)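 Greenhouse herbicide screen. Sowing into silt loam for preemergence application; foliar application to 2–18 cm seedlings in potting mix for postemergence. 0–100 visual control rating after 7–21 d.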

oilseed rape = experiment: Test D preemergence; type: in vivo, Brassica napus; conditions: Brassica napus, pre-emergence
Outline: as §1

chamomile = experiment: Test D preemergence; type: in vivo, Matricaria inodora; conditions: Tripleurospermum inodorum, pre-emergence
Outline: as §1

speedwell = experiment: Test D preemergence; type: in vivo, Veronica persica; conditions: Veronica persica, pre-emergence
Outline: as §1

wild buckwheat [2] = experiment: Test D preemergence; type: in vivo, Polygonum convolvulus; conditions: Fallopia convolvulus, pre-emergence
Outline: as §1

bluegrass [3] = experiment: Test D postemergence; type: in vivo, Poa annua; conditions: Poa annua, post-emergence, Postemergence, scale 0 to 100 (0 no effect, 100 complete control), read-out: Plant response rating, Bluegrass
Outline: as §1

bromegrass, downy = experiment: Test D postemergence; type: in vivo, Bromus tectorum; conditions: Bromus tectorum, post-emergence, Postemergence, scale 0 to 100 (0 no effect, 100 complete control), read-out: Plant response rating, Bromegrass, Downy
Outline: as §1

deadnettle = experiment: Test D postemergence; type: in vivo, Lamium amplexicaule; conditions: Lamium amplexicaule, post-emergence
Outline: as §1

Italian ryegrass = experiment: Test D postemergence; type: in vivo, Lolium multiflorum; conditions: Lolium multiflorum, post-emergence
Outline: as §1

pigweed = experiment: Test D postemergence; type: in vivo, Amaranthus retroflexus; conditions: Amaranthus retroflexus, post-emergence
Outline: as §1

wild buckwheat [4] = experiment: Test D postemergence; type: in vivo, Polygonum convolvulus; conditions: Fallopia convolvulus, post-emergence, Postemergence, scale 0 to 100 (0 no effect, 100 complete control), read-out: Plant response rating, Buckwheat, Wild
Outline: as §1

wild mustard = experiment: Test D postemergence; type: in vivo, Sinapis arvensis; conditions: Brassica, post-emergence
Outline: as §1

field bindweed = experiment: Test E postemergence; type: in vivo, Convolvulus arvensis; conditions: Convolvulus arvensis, post-emergence, read-out: Plant response rating, Field Bindweed
Outline: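 Response was scored visually on a 0-100 scale (100 = complete control) versus controls after 14 to 21 days in the greenhouse. Test chemicals, formulated with surfactant in a non-phytotoxic solvent mixture, had been applied preemergence to seeds in silt loam soil or postemergence to 1- to 4-leaf plants in potting medium.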

Clc1cnc(Oc2ccccc2-n2cc(Br)cn2)nc1 [Compound 7, 2-[2-(4-bromo-1H-pyrazol-1-yl)phenoxy]-5-chloropyrimidine] was tested, and the pest or weed control at 16 g/ha (bluegrass [1]; 16 g ai/ha, scale 0 (no effect) to 100 (complete control), read-out: Plant response rating, Bluegrass) was 0%, the pest or weed control at 31 g/ha (bluegrass [1]; 31 g ai/ha, scale 0-100, read-out: Plant response rating, Bluegrass) was 0% and the pest or weed control at 62 g/ha (bluegrass [1]; 62 g ai/ha, scale 0-100, read-out: Plant response rating, Bluegrass) was 0%. For the same compound, the pest or weed control at 125 g/ha (bluegrass [1]; 125 g ai/ha, scale 0-100, read-out: Plant response rating, Bluegrass) was 30%, the pest or weed control at 250 g/ha (bluegrass [1]; 250 g ai/ha, scale 0-100, read-out: Plant response rating, Bluegrass) was 40% and the plant injury at 16 g/ha (oilseed rape; 16 g ai/ha, scale 0 (no effect) to 100 (complete control), read-out: Plant response rating, Oilseed Rape) was 0%. The plant injury at 31 g/ha (oilseed rape; 31 g ai/ha, scale 0-100, read-out: Plant response rating, Oilseed Rape) was 10%, the plant injury at 62 g/ha (oilseed rape; 62 g ai/ha, scale 0-100, read-out: Plant response rating, Oilseed Rape) was 25% and the plant injury at 125 g/ha (oilseed rape; 125 g ai/ha, scale 0-100, read-out: Plant response rating, Oilseed Rape) was 100%. It also gave a plant injury at 250 g/ha (oilseed rape; 250 g ai/ha, scale 0-100, read-out: Plant response rating, Oilseed Rape) of 100%, a pest or weed control at 16 g/ha (chamomile; 16 g ai/ha, scale 0 (no effect) to 100 (complete control), read-out: Plant response rating, Chamomile) of 0% and a pest or weed control at 31 g/ha (chamomile; 31 g ai/ha, scale 0-100, read-out: Plant response rating, Chamomile) of 0%. For the same compound, the pest or weed control at 62 g/ha (chamomile; 62 g ai/ha, scale 0-100, read-out: Plant response rating, Chamomile) was 0%, the pest or weed control at 125 g/ha (chamomile; 125 g ai/ha, scale 0-100, read-out: Plant response rating, Chamomile) was 20% and the pest or weed control at 250 g/ha (chamomile; 250 g ai/ha, scale 0-100, read-out: Plant response rating, Chamomile) was 25%. The pest or weed control at 16 g/ha (speedwell; 16 g ai/ha, scale 0 (no effect) to 100 (complete control), read-out: Plant response rating, Speedwell) was 20%, the pest or weed control at 31 g/ha (speedwell; 31 g ai/ha, scale 0 (no effect) to 100 (complete control), read-out: Plant response rating, Speedwell) was 50% and the pest or weed control at 62 g/ha (speedwell; 62 g ai/ha, scale 0-100, read-out: Plant response rating, Speedwell) was 100%. For the same compound, the pest or weed control at 125 g/ha (speedwell; 125 g ai/ha, scale 0-100, read-out: Plant response rating, Speedwell) was 100%, the pest or weed control at 250 g/ha (speedwell; 250 g ai/ha, scale 0-100, read-out: Plant response rating, Speedwell) was 100% and the pest or weed control at 16 g/ha (wild buckwheat [2]; 16 g ai/ha, scale 0 (no effect) to 100 (complete control), read-out: Plant response rating, Buckwheat, Wild) was 0%. It also gave a pest or weed control at 31 g/ha (wild buckwheat [2]; 31 g ai/ha, scale 0-100, read-out: Plant response rating, Buckwheat, Wild) of 0%, a pest or weed control at 62 g/ha (wild buckwheat [2]; 62 g ai/ha, scale 0-100, read-out: Plant response rating, Buckwheat, Wild) of 75% and a pest or weed control at 125 g/ha (wild buckwheat [2]; 125 g ai/ha, scale 0-100, read-out: Plant response rating, Buckwheat, Wild) of 80%. It also gave a pest or weed control at 250 g/ha (wild buckwheat [2]; 250 g ai/ha, scale 0-100, read-out: Plant response rating, Buckwheat, Wild) of 90%, a pest or weed control at 16 g/ha (bluegrass [3]; 16 g ai/ha) of 0% and a pest or weed control at 31 g/ha (bluegrass [3]; 31 g ai/ha) of 0%. It also gave a pest or weed control at 62 g/ha (bluegrass [3]; 62 g ai/ha) of 0%, a pest or weed control at 125 g/ha (bluegrass [3]; 125 g ai/ha) of 10% and a pest or weed control at 250 g/ha (bluegrass [3]; 250 g ai/ha) of 15%. For the same compound, the pest or weed control at 16 g/ha (bromegrass, downy; 16 g ai/ha) was 0%, the pest or weed control at 31 g/ha (bromegrass, downy; 31 g ai/ha) was 0% and the pest or weed control at 62 g/ha (bromegrass, downy; 62 g ai/ha) was 0%. For the same compound, the pest or weed control at 125 g/ha (bromegrass, downy; 125 g ai/ha) was 5%, the pest or weed control at 250 g/ha (bromegrass, downy; 250 g ai/ha) was 5% and the pest or weed control at 16 g/ha (deadnettle; 16 g ai/ha, scale 0-100, read-out: Plant response rating, Deadnettle) was 10%. For the same compound, the pest or weed control at 31 g/ha (deadnettle; 31 g ai/ha, scale 0 to 100 (0 no effect, 100 complete control), read-out: Plant response rating, Deadnettle) was 10%, the pest or weed control at 62 g/ha (deadnettle; 62 g ai/ha, scale 0 to 100 (0 no effect, 100 complete control), read-out: Plant response rating, Deadnettle) was 20% and the pest or weed control at 125 g/ha (deadnettle; 125 g ai/ha, scale 0 to 100 (0 no effect, 100 complete control), read-out: Plant response rating, Deadnettle) was 30%. It also gave a pest or weed control at 250 g/ha (deadnettle; 250 g ai/ha, scale 0 to 100 (0 no effect, 100 complete control), read-out: Plant response rating, Deadnettle) of 40%, a pest or weed control at 16 g/ha (Italian ryegrass; 16 g ai/ha, scale 0-100, read-out: Plant response rating, Ryegrass, Italian) of 0% and a pest or weed control at 31 g/ha (Italian ryegrass; 31 g ai/ha, scale 0 to 100 (0 no effect, 100 complete control), read-out: Plant response rating, Ryegrass, Italian) of 0%. For the same compound, the pest or weed control at 62 g/ha (Italian ryegrass; 62 g ai/ha, scale 0 to 100 (0 no effect, 100 complete control), read-out: Plant response rating, Ryegrass, Italian) was 0%, the pest or weed control at 125 g/ha (Italian ryegrass; 125 g ai/ha, scale 0 to 100 (0 no effect, 100 complete control), read-out: Plant response rating, Ryegrass, Italian) was 0% and the pest or weed control at 250 g/ha (Italian ryegrass; 250 g ai/ha, scale 0 to 100 (0 no effect, 100 complete control), read-out: Plant response rating, Ryegrass, Italian) was 0%. It also gave a pest or weed control at 16 g/ha (pigweed; 16 g ai/ha, scale 0-100, read-out: Plant response rating, Pigweed) of 70%, a pest or weed control at 31 g/ha (pigweed; 31 g ai/ha, scale 0 to 100 (0 no effect, 100 complete control), read-out: Plant response rating, Pigweed) of 90% and a pest or weed control at 62 g/ha (pigweed; 62 g ai/ha, scale 0 to 100 (0 no effect, 100 complete control), read-out: Plant response rating, Pigweed) of 100%. The pest or weed control at 125 g/ha (pigweed; 125 g ai/ha, scale 0 to 100 (0 no effect, 100 complete control), read-out: Plant response rating, Pigweed) was 100%, the pest or weed control at 250 g/ha (pigweed; 250 g ai/ha, scale 0 to 100 (0 no effect, 100 complete control), read-out: Plant response rating, Pigweed) was 100% and the pest or weed control at 16 g/ha (wild buckwheat [4]; 16 g ai/ha) was 20%. It also gave a pest or weed control at 31 g/ha (wild buckwheat [4]; 31 g ai/ha) of 30%, a pest or weed control at 62 g/ha (wild buckwheat [4]; 62 g ai/ha) of 60% and a pest or weed control at 125 g/ha (wild buckwheat [4]; 125 g ai/ha) of 85%. It also gave a pest or weed control at 250 g/ha (wild buckwheat [4]; 250 g ai/ha) of 100%, a pest or weed control at 16 g/ha (wild mustard; 16 g ai/ha, scale 0-100, read-out: Plant response rating, Mustard, Wild) of 20% and a pest or weed control at 31 g/ha (wild mustard; 31 g ai/ha, scale 0 to 100 (0 no effect, 100 complete control), read-out: Plant response rating, Mustard, Wild) of 50%. For the same compound, the pest or weed control at 62 g/ha (wild mustard; 62 g ai/ha, scale 0 to 100 (0 no effect, 100 complete control), read-out: Plant response rating, Mustard, Wild) was 75%, the pest or weed control at 125 g/ha (wild mustard; 125 g ai/ha, scale 0 to 100 (0 no effect, 100 complete control), read-out: Plant response rating, Mustard, Wild) was 95% and the pest or weed control at 250 g/ha (wild mustard; 250 g ai/ha, scale 0 to 100 (0 no effect, 100 complete control), read-out: Plant response rating, Mustard, Wild) was 98%. The pest or weed control at 31 g/ha (field bindweed; Postemergence, 31 g ai/ha, scale 0 to 100) was 30%, the pest or weed control at 62 g/ha (field bindweed; Postemergence, 62 g ai/ha, scale 0 to 100) was 50% and the pest or weed control at 125 g/ha (field bindweed; Postemergence, 125 g ai/ha, scale 0 to 100) was 70%. For the same compound, the pest or weed control at 8 g/ha (field bindweed; postemergence, 8 g ai/ha, scale 0 to 100, 0 no effect, 100 complete control) was 15% and the pest or weed control at 16 g/ha (field bindweed; postemergence, 16 g ai/ha, scale 0 to 100, 0 no effect, 100 complete control) was 20%.
